Paper PMC5833777, “Lup-20(29)-en-3β,28-di-yl-nitrooxy acetate affects MCF-7 proliferation through the crosstalk between apoptosis and autophagy in mitochondria” (Cell Death & Disease, 2018)

Key:
[1] = test system: MCF-7 cells; assay: Western blots of MCF-7 cell extracts; type: cell-based
Description: MCF-7 cells treated with NBT and/or CQ for 24 h were harvested, washed twice with cold PBS, and then fractionated into cytosolic and mitochondrial fractions by using a Qproteome Mitochondria Isolation Kit (Qiagen, Germany) following the manufacturer’s protocol.
MCF-7 cells treated with NBT and/or CQ for 24 h were lysed in cell lysis buffer containing 1% PMFS for 30 min on ice and centrifuged at 12,000 r.p.m. for 5 min at 4 °C. Then, the protein was quantified by using a BCA Protein Assay Kit (BestBio, Shanghai, China).
Total cell extracts (50 μg) were separated by using SDS-PAGE at 120 V for 1.5 h at room temperature and then eletrotransferred onto PVDF membranes at 300 mA for 1 h at 4 °C. The membranes were washed three times with TBST each for 10 min, blocked with 5% nonfat dry milk in TBST for 2 h at room temperature, rinsed with TBST, incubated with primary antibodies overnight at 4 °C, washed three times with TBST, incubated with HRP-linked anti-IgG for 1 h at room temperature, and then washed three times as before. At the same time, β-actin, GAPDH, and tubulin acted as the control. Afterward, the chemiluminescent bands were analyzed using Image Lab™ Software on ChemiDoc XRS + (Bio-Rad, USA).

[2] = test system: MCF-7 xenograft; assay: In vivo antitumor efficacy on MCF-7 tumor-bearing nude mice (tumor volume, H&E, TUNEL); parameters: species or system female BALB/c nude mice; settings: for tumor growth compared with the control: i.p. daily for 11 days, NBT 100 mg/kg, BT 100 mg/kg, 5-FU 22 mg/kg
From the text: Representative images are shown at ×400 magnification. Scale bar: 100 μm. Data represent mean ± SD of three independent experiments
Tumor samples were fixed in 10% formalin, paraffinized, and sectioned into 4-μm sections, which were stained with H&E according to standard methods.
Tumor samples were fixed in 10% formalin, paraffinized, and sectioned into 4-μm sections, which were stained with FITC-POD according to standard methods.

[3] = for coefficient of the heart, liver, spleen, and kidney to the body weight: after 11 days of exposure; for body weight changes: during 11 days of exposure; for ALT/GPT / AST/GOT / BUN / CRE / UA: serum, after 11 days i.p., N = 8, mean ± S
[4] = test system: MCF-7; assay: CCK-8 cell proliferation assay, MCF-7; type: cell-based; settings: Homo sapiens, MCF7, 48 h
Description: (§1) Fig. 2 NBT and BT induced cell death in HeLa, A549, and MCF-7 cell lines. a Effects of BT on the proliferation of MCF-7, HeLa, and A549 cells. Cells (5 × 10^3) were seeded in a 96-well plate for 24 h and then treated with increased concentrations of BT for 48 h. The cell viability was evaluated by using CCK-8 assay. b MCF-7, HeLa, and A549 cells (5 × 10^3) were seeded in a 96-well plate for 24 h and were treated with known concentrations of NBT for 48 h. c MCF-7 cells (5 × 10^3) were seeded in a 96-well plate for 24 h and then were treated with known concentrations of NBT for 24 or 48 h. The cell viability was evaluated by using CCK-8 assay. d MCF10A, BEAS-2B, and L-02 cells (5 × 10^3) were seeded in a 96-well plate for 24 h and were treated with 6, 12, and 24 μM concentrations of NBT for 24 or 48 h. The cell viability was evaluated by using CCK-8 assay.
(§2) MCF-7, HeLa, A549, BEAS-2B, MCF10A, and L-02 cell lines were purchased from the American Type Culture Collection (ATCC) (Rockville, Maryland, USA). […]
(§3) Cells were grown in 96-well plates at a density of 5 × 10^3 cells/100 μL for 24 h, and then various concentrations of BT or NBT were added for 24 or 48 h. […] Optical density was measured at 450 nm by using a multimode plate reader (PerkinElmer EnSpire, USA).

[5] = test system: HeLa; assay: CCK-8 cell proliferation assay, HeLa; type: cell-based; settings: Homo sapiens, 48 h
Description: as §1, §2, §3

[6] = test system: A549; assay: CCK-8 cell proliferation assay, A549; type: cell-based; settings: Homo sapiens, 48 h
Description: as §1, §2, §3

[7] = MCF-7, 24 h, NBT 6-24 μM, Rapa 0.25 μM, NBT 12 μM + CQ 40 μM

| SMILES | tumor growth compared with the control [2] | coefficient of the heart, liver, spleen, and kidney to the body weight [3] | body weight changes [3] | ALT/GPT [3] [IU/L] | AST/GOT [3] [IU/L] | BUN [3] [mmol/L] | CRE [3] [µmol/L] | UA [3] [µmol/L] | also measured |
| --- | --- | --- | --- | --- | --- | --- | --- | --- | --- |
| Cn1cnc(N)c2ncnc1-2 [3-MA, 3-methyladenine, reference compound] |  |  |  |  |  |  |  |  | effect on NBT-induced caspase-9 and PARP activation ([1]; MCF-7, 3-MA 5 mM with NBT 12 μM, 24 h): inhibit |
| O=c1[nH]cc(F)c(=O)[nH]1 [5-FU, 5-fluorouracil] | significant reduction in tumor growth | no significant differences | no significant differences | 95.48 ± 12.86 | 245.71 ± 47.15 | 9.26 ± 2.23 | 32.95 ± 6.29 | 84.52 ± 6.63 |  |
| C=C(C)[C@@H]1CC[C@]2(CO)CC[C@]3(C)[C@H](CC[C@@H]4[C@@]5(C)CC[C@H](O)C(C)(C)[C@@H]5CC[C@]43C)[C@@H]12 [BT, Betulin] | minimal reduction in tumor growth | no significant differences | no significant differences | 106.33 ± 24.27 | 183.42 ± 39.98 | 10.13 ± 3.04 | 45.10 ± 6.43 | 130.18 ± 25.22 | inhibition at 500 µM [4]: ≤ 40%; IC50 [5]: 288 ± 12.3 µM; inhibition at 500 µM [6]: ≤ 40%; HE staining of tumors ([2]; 100 mg/kg i.p., 11 days): fibrosis, necrosis, and inflammatory cell infiltration; safety after 11 days of administration ([3]; 100 mg/kg i.p., nude mice): safe |
| CCN(CC)CCCC(C)Nc1ccnc2cc(Cl)ccc12 (stereo not drawn) [CQ, Chloroquine, reference compound] |  |  |  |  |  |  |  |  | p62 level increased by ([1]; MCF-7, 40 μM, 24 h): 75% |
| CO[C@H]1C[C@@H]2CC[C@@H](C)[C@@](O)(O2)C(=O)C(=O)N2CCCC[C@H]2C(=O)O[C@H]([C@H](C)C[C@@H]2CC[C@@H](O)[C@H](OC)C2)CC(=O)[C@H](C)/C=C(\C)[C@@H](O)[C@@H](OC)C(=O)[C@H](C)C[C@H](C)/C=C/C=C/C=C/1C [Rapa, Rapamycin, reference compound] |  |  |  |  |  |  |  |  | p62 level reduced by ([1]; MCF-7, 0.25 μM alone, 24 h): 60%; Atg5 level [1, 7]: increased; p62 level [1, 7]: decreased; LC3B-II level ([1]; MCF-7, 24 h, Rapa 0.25 μM, NBT 12 μM + CQ 40 μM): increased |
